# Results from the OPERA property sets (Mansouri et al. 2018).
row,logP,Compound
1,2.9,N#CC(C#N)=NNc1ccccc1[N+](=O)[O-]
2,2.28,N#CC(C#N)=NNc1cccc(O)c1
3,3.2,Cc1ccc(NN=C(C#N)C#N)cc1
4,1.83,CC(=O)Nc1ccc(NN=C(C#N)C#N)cc1
5,2.1,CC(=O)c1ccc(NN=C(C#N)C#N)cc1
6,3.58,N#CC(C#N)=NNc1ccc(CCCl)cc1

row,Compound,logP
1,N#CC(C#N)=NNc1cccc(Cl)c1,3.38
2,N#CC(C#N)=NNc1ccc(OC(F)(F)F)cc1,3.68
3,N#CC(C#N)=NNc1ccc(Cl)cc1,3.39
4,N#CC(C#N)=NNc1ccc([N+](=O)[O-])cc1,2.37
